Results from patent US20070098864A1, “PROCESS FOR PREPARING FORMULATIONS OF […] […] SPRAY FREEZING DRYING” (priority 2004, published 2007).

What was measured:
[1] = Modulated differential scanning calorimetry (glass transition temperature) of THC/inulin powders; type: physicochemical; conditions: MDSC
Method: Thermal behaviour of the spray freeze dried powders was determined by modulated differential scanning calorimetry (MDSC) on a differential scanning calorimeter (DSC2920, TA Instruments, Gent, Belgium). A modulation amplitude of 0.318° C., a modulation period of 60 seconds and a heating rate of 2° C./min was used. Calibration was performed with indium. Standard aluminium sample pans were used. During measurement, the sample cell was purged with nitrogen at a flow rate of 35 mL/min. Before scanning, the sample pan was heated at 2° C./min to 50° C. to remove all residual moisture. Subsequently, the sample was cooled to −20° C. and then scanned up to 180° C. The glass transition temperature (Tg) was defined as the inflection point of the change in specific heat in the reversing signal.

[2] = Stability study of THC (HPLC) in climate chambers
Method: To investigate the degradation of pure THC, 20 mL glass vials were charged with 70 μL of a solution of THC in methanol containing 2.52 mg THC. They were left overnight under a flow of dry nitrogen to allow for methanol evaporation. The resulting thin layers of THC spread over the bottom of the vials (4.5 cm^2). Spray freeze dried and freeze dried material containing THC were weighed in vials. All samples were stored in climate chambers of 20° C./45% RH and 60° C./8% RH. Samples (n=3) were taken at different time intervals and analysed by means of HPLC using the method described by van Drooge et al. (Eur. J. Pharm. Sci. 2004, 21, 511-518). Briefly, samples were extracted with methanol. A Waters 717+ autosampler was used to inject 50 μL of supernatant on a precolumn (HPLC precolum inserts, μBondapak C18 Guardpak) followed by a Chrompack Nucleosil 100 C18 column (4.6×250 mm). Absorbance at 214 nm was measured with a UV detector (Shimadzu SPD-M6A). Chromatograms and peak areas were analysed with an integrator (waters 741 Data Module) and Kromasystem 2000 software. The flow rate of the eluens (methanol/water 92/8 (v/v) plus 5 drops concentrated sulphuric acid per litre eluens) was set at 1.0 mL/min. […] In every series of HPLC-runs some calibration samples were included.

CCCCCc1cc(O)c2c(c1)OC(C)(C)[C@@H]1CCC(C)=C[C@@H]21 [pure THC, Δ^9-tetrahydrocannabinol]
Tg ([1]; pure substance): 9.3 °C | 1st Tg (° C.) ([1]; spray freeze dried, Tg of THC): 9.3 ± 1.0 °C | time to complete degradation ([2]; exposed to air of 20° C./45% RH): ≤ 50 days | time to complete degradation ([2]; storage at 60° C./8% RH): ≤ 15 days
